Entries after “also recorded” stand apart in the source; their conditions may differ.
How the values were obtained:
[1] = test system: T1, liver and intestinal microsomal ACAT; assay: Inhibition of liver and intestinal microsomal ACAT activity; type: biochemical
T1 construct: other: 100 μM; other: 44 nM; other: 50 μM
Experimental: . Microsomes were prepared from liver and intestinal mucosal scrapings by sequential centrifugation and in vitro ACAT activity assays were done according to the method of Billheimer (Billheimer, J. T. (1985), “Cholesterol acyltransferase,” In Methods in Enzymology 111:286-293). Briefly, 100 μg microsomal protein, 22 μg BSA, and 52 nmol cholesterol and the synthesized drug in 5 μL DMSO were preincubated for 30 minutes at 37° C. in a phosphate buffer (200 μL total volume). After 30 minutes, 1 nmol [^14C]oleoyl-CoA was added as substrate and incubated for an additional 20 minutes. The reaction was stopped with the addition of 1 mL ethanol and lipids were extracted with hexane. Cholesteryl [^14C]oleate formation was quantified by thin-layer chromatography and data are expressed as percent inhibition of ACAT activity (pmol/μg protein per minute) compared to a control sample incubated with no drug. All samples were run in duplicate. […]

[2] = biological target: acetylcholinesterase (AChE) (UniProt O42275); type: biochemical, electric eel; fetal bovine serum; conditions: read-out: AChE inhibition constant Ki ± std. error; 30° C., pH 8.0
acetylcholinesterase (AChE), sequence (O42275 whole entry): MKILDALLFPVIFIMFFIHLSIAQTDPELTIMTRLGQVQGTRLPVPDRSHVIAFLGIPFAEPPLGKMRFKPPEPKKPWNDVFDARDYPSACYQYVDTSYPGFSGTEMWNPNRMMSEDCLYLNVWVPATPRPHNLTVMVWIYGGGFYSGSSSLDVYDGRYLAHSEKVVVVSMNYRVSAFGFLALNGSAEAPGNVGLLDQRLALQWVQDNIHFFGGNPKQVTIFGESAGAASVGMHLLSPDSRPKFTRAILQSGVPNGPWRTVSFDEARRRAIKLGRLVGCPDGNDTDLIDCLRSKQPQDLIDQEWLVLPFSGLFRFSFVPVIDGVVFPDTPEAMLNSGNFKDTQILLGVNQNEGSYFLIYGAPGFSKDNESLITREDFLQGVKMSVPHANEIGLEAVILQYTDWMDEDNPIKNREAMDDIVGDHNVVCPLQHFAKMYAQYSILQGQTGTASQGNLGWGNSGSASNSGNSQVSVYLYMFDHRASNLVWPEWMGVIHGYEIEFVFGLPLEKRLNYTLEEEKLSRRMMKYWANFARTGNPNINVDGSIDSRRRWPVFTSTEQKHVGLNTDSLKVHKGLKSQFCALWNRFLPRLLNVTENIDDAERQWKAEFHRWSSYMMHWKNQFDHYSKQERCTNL
Experimental: Acetylcholinesterase Assay and Inhibition Kinetics: Tricyclic pyrones of this invention were tested for inhibition of AChE. […] Reactions were carried out at 30° C. in 0.1 M sodium phosphate buffer at pH 8.0 in the presence of […] and 3.3×10^−4 M 3-carboxy-4-nitrophenyl disulfide. Aliquots of incubating mixtures containing enzyme alone, or enzyme in the presence of each carbamate, were withdrawn at selected time intervals and assayed for enzyme activity in order to obtain kinetic data. From the kinetic data, inhibition and bimolecular rate constants were calculated by the equation: [formula]
in which kapp is the pseudo-first-order rate constant.

[3] = test system: L1210 lymphoblastic leukemia cells; assay: Inhibition of L1210 tumor cell growth in vitro (Coulter counter); type: cell-based, Murine; conditions: for inhibition of L1210 cell growth (% reduction of control cell numbers): 50 μM, 3 and 4 days in culture; for reduction of L1210 cell numbers vs control: 0.78 μM
Experimental: Cells were plated at an initial density of 1×10^4 cells/0.5 ml/well in RPMI 1640 medium, containing 7.5% fortified bovine calf serum, and grown at 37° C. for 4 days in a humidified incubator in 5% CO2 in air. Cells were incubated in the presence or absence (^•, control) of 50 μM 3A (▪), 2D & 2E (□),3D & 3E (▴), 2B & 2C (Δ) 2A (♦), 3B & 3C (⋄), or 10 μM CPT (∘) and their density was monitored in triplicate every 24 h using a Coulter counter. Cells numbers are plotted on a logarithmic scale.
(§1) All solutions of tricyclic pyrone analogs were dissolved and diluted in 100% ethanol (ETOH), whereas CPT (Sigma Chemical Co., St. Louis, Mo.) solutions were prepared in 100% dimethyl sulfoxide (DMSO). Murine L1210 lymphoblastic leukemia cells, obtained from the American Type Culture Collection (Rockville, Md.), were maintained in continuous exponential growth by twice-a-week passage in RPMI 1640 medium supplemented with 7.5% fortified bovine calf serum (HyClone Laboratories, Inc., Logan, Utah). The cultures were incubated at 37° C. in a humidified atmosphere containing 5% CO2. All drugs were supplemented to the culture medium in 1- or 2 μl aliquots. The concentration of vehicle in the final incubation volume never exceeded 0.2-0.4%. […] Control cells incubated in the absence of drugs were similarly treated with vehicle only and, in every experiment, all incubates received the same volume of solvent.
For tumor cell growth, L1210 cells were resuspended in fresh serum-containing RPMI 1640 medium, plated at an initial density of 1×10^4 cells/0.5 ml, and incubated in 48-well Costar cell culture plates (Costar, Cambridge, Mass.). Cells were grown for 4 days in the presence or absence of drugs and their density was monitored every 24 h using a Coulter counter (Coulter Electronics, Ltd., Luton Beds, England). Data of all in vitro experiments were analyzed using Student's t-test with the level of significance set at P<0.05.

[4] = test system: L1210 lymphoblastic leukemia cells; assay: Inhibition of DNA synthesis (3H-thymidine incorporation) in L1210 cells in vitro; type: cell-based, Murine
Experimental: FIG. 1 illustrates a comparison of the effects of four new tricyclic pyrone derivatives and CPT on DNA synthesis in L1210 cells in vitro. About 2.53×10^6 cells suspended in 0.5 ml of RPMI 1640 medium were incubated at 37° C. for 90 minutes in the presence or absence (control) of the indicated concentrations of drugs. The cells were then pulse-labeled for an additional 30 minutes to determine the rate of ^3H-thymidine incorporation into DNA. DNA synthesis in vehicle-treated control cells was 43,956±4,569 cpm (100±11%). The blank value (1,241±99 cpm) for cells pulse-labeled for 0 minutes with 1 μCi of ^3H-thymidine has been subtracted from the results. Bars: means±SD (n=3).
as §1
For DNA synthesis, L1210 cells were resuspended in fresh serum-free RPMI 1640 medium at a density of about 2.5×10^6 cells/0.5 ml. The cells were incubated at 37° C. for 90 min in the presence or absence of drugs and then pulse-labeled for an additional 30 min with 1 μCi of [methyl-^3H]thymidine (51 Ci/mmol; Amersham Corp., Arlington Heights, Ill.). The incubations were terminated by the addition of 0.5 ml of 10% trichloroacetic acid (TCA). After holding on ice for 15 min, the acid-insoluble material was recovered over Whatman GF/A glass microfibre filters and washed thrice with 2 ml of 5% TCA and twice with 2 ml of 100% EtOH. After drying the filters, the radioactivity bound to the acid-precipitable material was determined by liquid scintillation counting in 10 ml of Bio-Safe NA (Research Products International Corp., Mount Prospect, Ill.).

[5] = 50 μM, 90 min + 30 min pulse, 50 µM

| Molecule | % Inhibition of ACAT ([1]; 50 μM) | % Inhibition of ACAT ([1]; 100 μM) | Ki [2] | also measured |
| --- | --- | --- | --- | --- |
| CCCCC(=O)OCC(C)[C@H]1CCC2C(O)c3c(cc(-c4ccc(OC)c(OC)c4)oc3=O)O[C@H]2C1 (stereo partly drawn) [Compound 37, (5aS,7S)-7-[2-(1-Pentanoyloxypropyl)]-10-hydroxy-3-(3,4-dimethoxyphenyl)-1H-5a,6,7,8,9,9a,10-heptahydro-1-oxopyrano[4,3-b][1]benzopyran] | 36.8% | 52.4% |  |  |
| COc1ccc(-c2cc3c(c(=O)o2)C=C2CCCC(OC=O)C2(C)O3)cc1OC (stereo not drawn) [Compound 3D, cis-3-(3,4-Dimethoxyphenyl)-6-formyloxy-5a-methyl-1H-5a,6,7,8,9-pentahydro-1-oxopyrano[4,3-B][1]benzopyran] |  |  | 15 ± 5.8 µM |  |
| Cc1cc2c(c(=O)o1)C=C1CCCC(OC=O)C1(C)O2 (stereo not drawn) [Compound 1D, cis-3-5-a-dimethyl-6-formyloxy-1H-5a,6,7,8,9-pentahydro-1-oxopyrano[4,3-b][1]benzopyran] |  |  | 5 ± 1.7 µM | IC50 ([1]; using literature IC50 of pyripyropene as standard): 52 µM |
| C=C(C)[C@H]1CCC2=Cc3c(cc(-c4ccc(OC)c(OC)c4)oc3=O)OC2C1 (stereo partly drawn) [Compound 30, (5aS,7S)-7-Isopropenyl-3-(3,4-dimethoxyphenyl)-1H-5a,6,7,8,9-pentahydro-1-oxopyrano[4,3-b][1]benzopyran] | 13.3% | 21.9% |  |  |
| CC12Oc3cc(-c4cccnc4)oc(=O)c3C=C1CCCC2O (stereo not drawn) [2B & 2C, cis- and trans-3-(3-pyridyl)-5a-methyl-6-hydroxy-1H-5a,6,7,8,9-pentahydro-1-oxopyrano[4,3-b]benzopyran] |  |  |  | inhibition of L1210 cell growth (% reduction of control cell numbers) [3]: cannot inhibit the growth |
| C=C(C)[C@H]1CCC2=Cc3c(cc(C)oc3=O)O[C@H]2C1 [Compound 28, (5aS,7S)-7-Isopropenyl-3-methyl-1H-5a,6,7,8,9-pentahydro-1-oxopyrano[4,3-b][1]benzopyran] | 17% | 30% |  |  |
| O=c1occc2nc3c(cc12)CCCC3 [Compound 24, 1H-6,7,8,9-tetrahydro-1-oxopyrano[4,3-b]quinoline] | 1.9% | 3.3% |  |  |
| Cc1cc2c(c(=O)o1)C=C1CCC[C@H](O)[C@@]1(C)O2 [Compound 1B, cis-3-5a-dimethyl-6-hydroxy-1H-5a,6,7,8,9-pentahydro-1-oxopyrano[4,3-b][1]benzopyran] |  |  | 20 ± 5.8 µM |  |
| CC12Oc3cc(-c4cccnc4)oc(=O)c3C=C1CCCC2OC=O (stereo not drawn) [2D & 2E, cis- and trans-3-(3-pyridyl)-5a-methyl-6-formyloxy-1H-5a,6,7,8,9-pentahydro-1-oxopyrano[4,3-b]benzopyran] |  |  |  | inhibition of DNA synthesis in L1210 cells ([4]; 25 μM, 90 min + 30 min pulse): no significant effects; inhibition of DNA synthesis in L1210 cells [4, 5]: 49%; inhibition of L1210 cell growth (% reduction of control cell numbers) [3]: cannot inhibit the growth |
| O=C(O)Cc1cc2c(c(=O)o1)C=C1CCCCC1O2 (stereo not drawn) [Compound 32, 3-(Carboxymethyl)-1H-5a,6,7,8,9-pentahydro-1-oxopyrano[4,3-b][1]benzopyran] | 10.3% | 7.9% |  |  |
| CCCCCCCC[C@H](SCCCCCC)C(=O)Nc1c(SC)cc(C)nc1SC [CP-113,818, reference compound] |  |  |  | % Inhibition of ACAT ([1]; 44 nM): 42.5% |
| CC[C@@]1(O)C(=O)OCc2c1cc1n(c2=O)Cc2cc3ccccc3nc2-1 [CPT, 20(S)-camptothecin (CPT), reference compound] |  |  |  | IC50 ([4]; Mus musculus, L1210, 2 h, read-out: concentration that inhibits DNA synthesis by 50% (IC50)): ~0.65 µM; reduction of L1210 cell numbers vs control ([3]; 1 day): 46%; reduction of L1210 cell numbers vs control ([3]; 2 days): 85%; reduction of L1210 cell numbers vs control ([3]; 3 days): 97%; reduction of L1210 cell numbers vs control ([3]; 4 days): 99% |
| CC12Oc3cc(-c4cccnc4)oc(=O)c3C=C1CCCC2O (stereo not drawn) [Compound 2B, cis-3-(3-pyridyl)-5a-methyl-6-hydroxy-1H-5a,6,7,8,9-pentahydro-1-oxopyrano[4,3-b][1]benzopyran] |  |  | 8 ± 2.3 µM |  |
| O=c1oc(-c2cccnc2)cc2c1[C@@H](O)[C@@]1(O)CCCC[C@@H]1O2 (relative stereo) [Compound 38B, (5aS*,9aR*,10R*)-9a,10-Dihydroxy-3-(3-pyridyl)-1H-5a,6,7,8,9,9a,10-heptahydro-1-oxopyrano[4,3-b][1]benzopyran] | 9.7% | 11.4% |  |  |
| COc1ccc(-c2cc3c(c(=O)o2)C=C2CCCC(O)C2(C)O3)cc1OC (stereo not drawn) [Compound 3B, cis-3-(3,4-dimethoxyphenyl)-5a-methyl-6-hydroxy-1H-5a,6,7,8,9-pentahydro-1-oxopyrano[4,3-b][1]benzopyran] |  |  | 4 ± 0.6 µM |  |
| Cc1cc2ncc3c(c2c(=O)o1)CCCC3 [Compound 26, 1H-3-methyl-7,8,9,10-tetrahydropyrano[4,3-c]isoquinolin-1-one] | 2.7% | 13.7% |  |  |
| Cc1cc2c(c(=O)o1)C=C1CCCCC1O2 (stereo not drawn) [Compound 1A, 3-methyl-1H-5a,6,7,8,9-pentahydro-1-oxopyrano[4,3-b]-[i]benzopyran] |  |  | 7 ± 1.2 µM | inhibition at 50 µM ([4]; Mus musculus, L1210, 50 μM, 90 min + 30 min pulse): 17 to 32% |
| C=C(C)[C@H]1CCC2=Cc3c(cc(-c4cccnc4)oc3=O)O[C@H]2C1 [Compound 29, (5aS,7S)-7-Isopropenyl-3-(3-pyridyl)-1H-5a,6,7,8,9-pentahydro-1-oxopyrano[4,3-b][1]benzopyran] | 21% | 39% |  |  |
| CC12Oc3cc(-c4cccnc4)oc(=O)c3C=C1CCCC2OC=O (stereo not drawn) [Compound 2D, cis-3-(3-pyridyl)-5a-methyl-6-formyloxy-1H-5a,6,7,8,9-pentahydro-1-oxopyrano[4,3-b][1]benzopyran] |  |  | 26 ± 2.3 µM |  |
| O=C(CCCCC(=O)Cc1cc2c(c(=O)o1)C=C1CCCCC1O2)Cc1cc2c(c(=O)o1)C=C1CCCCC1O2 (stereo not drawn) [Compound 33, 1,8-Di-{3-[1H-5a,6,7,8,9-pentahydro-1-oxopyrano[4,3-b][I]benzopyranyl]}-2,7-octanedione] | 57% | 76% |  |  |
| tri(deacetyl)pyripyropene A [Compound 22] |  |  |  | inhibition of DNA synthesis in L1210 cells ([4]; 25 μM, 90 min + 30 min pulse): no significant effects; inhibition of DNA synthesis in L1210 cells [4, 5]: no effect; also recorded: ineffective; also recorded: fail to inhibit DNA synthesis |

Reference: US6384045B1, “Tricyclic and tetracyclic pyrones” (Kansas State University Research Foundation, priority 1997, dated 2002)
